Source: ChEMBL document CHEMBL4507318, “Data for DCP probe BAY-985” (2021)

Assays:
[1] = target: Aurora kinase B (Homo sapiens) (UniProt Q96GD4)
[2] = target: Tyrosine-protein kinase receptor UFO (Homo sapiens) (UniProt P30530)
[3] = target: Tyrosine-protein kinase BTK (Homo sapiens) (UniProt Q06187)
[4] = target: Calcium/calmodulin-dependent protein kinase type IV (Homo sapiens) (UniProt Q16566)
[5] = target: Cyclin-dependent kinase 9 (Homo sapiens) (UniProt P50750)
[6] = target: Dual specificity protein kinase CLK4 (Homo sapiens) (UniProt Q9HAZ1)
[7] = target: Tyrosine-protein kinase CSK (Homo sapiens) (UniProt P41240)
Chain of Tyrosine-protein kinase CSK (Homo sapiens) (P41240 2-450 limits assumed): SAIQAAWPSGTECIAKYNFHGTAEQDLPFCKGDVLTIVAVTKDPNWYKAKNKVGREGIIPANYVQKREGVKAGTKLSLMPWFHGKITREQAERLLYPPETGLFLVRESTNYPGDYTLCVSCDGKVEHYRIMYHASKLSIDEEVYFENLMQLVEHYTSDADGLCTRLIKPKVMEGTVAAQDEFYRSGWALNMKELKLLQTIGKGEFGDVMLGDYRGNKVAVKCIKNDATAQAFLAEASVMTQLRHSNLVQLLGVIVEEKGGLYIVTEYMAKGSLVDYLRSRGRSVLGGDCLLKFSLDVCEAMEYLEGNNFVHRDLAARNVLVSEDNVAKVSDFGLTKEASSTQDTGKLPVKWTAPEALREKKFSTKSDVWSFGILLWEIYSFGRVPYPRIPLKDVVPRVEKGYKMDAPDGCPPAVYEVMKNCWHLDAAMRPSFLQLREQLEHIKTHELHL

[8] = target: Serine/threonine-protein kinase 17B (Homo sapiens) (UniProt O94768)
Chain of Serine/threonine-protein kinase 17B (Homo sapiens) (O94768 whole entry): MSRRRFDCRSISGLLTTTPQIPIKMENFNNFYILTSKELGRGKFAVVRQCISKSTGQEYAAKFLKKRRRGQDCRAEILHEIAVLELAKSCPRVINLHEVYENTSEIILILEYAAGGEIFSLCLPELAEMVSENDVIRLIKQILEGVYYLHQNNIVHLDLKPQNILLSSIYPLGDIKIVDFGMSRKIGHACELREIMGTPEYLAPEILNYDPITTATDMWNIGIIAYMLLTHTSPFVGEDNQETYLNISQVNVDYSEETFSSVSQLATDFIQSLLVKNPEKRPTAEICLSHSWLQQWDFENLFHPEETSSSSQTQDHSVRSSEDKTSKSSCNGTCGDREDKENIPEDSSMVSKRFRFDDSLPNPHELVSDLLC

[9] = target: Dual specificity tyrosine-phosphorylation-regulated kinase 1A (Homo sapiens) (UniProt Q13627)
[10] = target: Dual specificity tyrosine-phosphorylation-regulated kinase 2 (Homo sapiens) (UniProt Q92630)
Chain of Dual specificity tyrosine-phosphorylation-regulated kinase 2 (Homo sapiens) (Q92630 whole entry): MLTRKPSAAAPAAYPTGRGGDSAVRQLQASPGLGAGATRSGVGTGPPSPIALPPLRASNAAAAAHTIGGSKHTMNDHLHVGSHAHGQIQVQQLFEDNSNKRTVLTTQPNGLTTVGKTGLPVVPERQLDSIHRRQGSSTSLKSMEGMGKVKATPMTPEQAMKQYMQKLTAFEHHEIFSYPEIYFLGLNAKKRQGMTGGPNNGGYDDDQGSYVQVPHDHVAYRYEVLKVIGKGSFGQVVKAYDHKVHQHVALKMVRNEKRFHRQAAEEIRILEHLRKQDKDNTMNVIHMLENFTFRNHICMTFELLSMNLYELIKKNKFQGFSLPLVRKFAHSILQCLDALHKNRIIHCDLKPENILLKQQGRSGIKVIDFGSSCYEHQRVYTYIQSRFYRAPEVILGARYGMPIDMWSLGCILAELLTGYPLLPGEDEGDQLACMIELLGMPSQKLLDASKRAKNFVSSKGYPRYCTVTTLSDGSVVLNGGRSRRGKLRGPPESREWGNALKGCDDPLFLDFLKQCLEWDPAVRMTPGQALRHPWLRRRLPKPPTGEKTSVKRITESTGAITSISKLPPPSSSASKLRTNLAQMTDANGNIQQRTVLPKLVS

[11] = target: Receptor tyrosine-protein kinase erbB-4 (Homo sapiens) (UniProt Q15303)
[12] = target: Mitogen-activated protein kinase 1 (Homo sapiens) (UniProt P28482)
[13] = system: Receptor-type tyrosine-protein kinase FLT3 (Homo sapiens), P36888 [UNDEFINED MUTATION]
Chain of Receptor-type tyrosine-protein kinase FLT3 (Homo sapiens), P36888 [UNDEFINED MUTATION] (P36888 whole entry, looked up, change not shown): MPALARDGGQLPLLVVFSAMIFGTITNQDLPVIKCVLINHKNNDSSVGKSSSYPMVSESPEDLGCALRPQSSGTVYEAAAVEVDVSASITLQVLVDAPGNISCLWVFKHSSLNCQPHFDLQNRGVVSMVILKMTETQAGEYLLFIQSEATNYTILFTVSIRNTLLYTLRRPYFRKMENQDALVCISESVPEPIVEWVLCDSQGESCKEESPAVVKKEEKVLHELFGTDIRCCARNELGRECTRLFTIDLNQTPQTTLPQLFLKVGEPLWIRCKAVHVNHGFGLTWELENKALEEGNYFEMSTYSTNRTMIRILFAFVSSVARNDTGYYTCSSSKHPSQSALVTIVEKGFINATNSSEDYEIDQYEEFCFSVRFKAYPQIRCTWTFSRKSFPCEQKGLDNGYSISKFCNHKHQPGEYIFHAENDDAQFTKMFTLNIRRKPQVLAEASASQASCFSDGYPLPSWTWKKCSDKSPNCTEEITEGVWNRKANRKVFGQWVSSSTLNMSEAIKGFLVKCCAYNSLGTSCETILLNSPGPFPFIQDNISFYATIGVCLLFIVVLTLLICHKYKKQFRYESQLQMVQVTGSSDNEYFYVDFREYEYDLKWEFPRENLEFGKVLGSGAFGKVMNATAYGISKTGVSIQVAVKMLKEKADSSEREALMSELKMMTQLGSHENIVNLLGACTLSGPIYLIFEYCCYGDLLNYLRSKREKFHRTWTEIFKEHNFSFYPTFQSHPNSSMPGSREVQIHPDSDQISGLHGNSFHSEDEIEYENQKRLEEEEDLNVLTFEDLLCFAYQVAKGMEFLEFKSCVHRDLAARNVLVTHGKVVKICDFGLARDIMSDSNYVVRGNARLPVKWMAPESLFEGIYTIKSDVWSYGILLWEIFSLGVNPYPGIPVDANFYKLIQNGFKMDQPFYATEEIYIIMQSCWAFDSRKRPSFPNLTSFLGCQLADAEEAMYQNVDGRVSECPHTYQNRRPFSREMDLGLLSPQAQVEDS

[14] = target: Tyrosine-protein kinase Fyn (Homo sapiens) (UniProt P06241)
[15] = target: G protein-coupled receptor kinase 3 (Homo sapiens) (UniProt P35626)
[16] = target: Glycogen synthase kinase-3 alpha (Homo sapiens) (UniProt P49840)
[17] = target: Inhibitor of nuclear factor kappa-B kinase subunit beta (Homo sapiens) (UniProt O14920)
[18] = target: Mast/stem cell growth factor receptor Kit (Homo sapiens) (UniProt P10721)
[19] = system: Mast/stem cell growth factor receptor Kit (Homo sapiens), P10721 [D816V]
[20] = target: Serine/threonine-protein kinase LATS1 (Homo sapiens) (UniProt O95835)
Chain of Serine/threonine-protein kinase LATS1 (Homo sapiens) (O95835 whole entry): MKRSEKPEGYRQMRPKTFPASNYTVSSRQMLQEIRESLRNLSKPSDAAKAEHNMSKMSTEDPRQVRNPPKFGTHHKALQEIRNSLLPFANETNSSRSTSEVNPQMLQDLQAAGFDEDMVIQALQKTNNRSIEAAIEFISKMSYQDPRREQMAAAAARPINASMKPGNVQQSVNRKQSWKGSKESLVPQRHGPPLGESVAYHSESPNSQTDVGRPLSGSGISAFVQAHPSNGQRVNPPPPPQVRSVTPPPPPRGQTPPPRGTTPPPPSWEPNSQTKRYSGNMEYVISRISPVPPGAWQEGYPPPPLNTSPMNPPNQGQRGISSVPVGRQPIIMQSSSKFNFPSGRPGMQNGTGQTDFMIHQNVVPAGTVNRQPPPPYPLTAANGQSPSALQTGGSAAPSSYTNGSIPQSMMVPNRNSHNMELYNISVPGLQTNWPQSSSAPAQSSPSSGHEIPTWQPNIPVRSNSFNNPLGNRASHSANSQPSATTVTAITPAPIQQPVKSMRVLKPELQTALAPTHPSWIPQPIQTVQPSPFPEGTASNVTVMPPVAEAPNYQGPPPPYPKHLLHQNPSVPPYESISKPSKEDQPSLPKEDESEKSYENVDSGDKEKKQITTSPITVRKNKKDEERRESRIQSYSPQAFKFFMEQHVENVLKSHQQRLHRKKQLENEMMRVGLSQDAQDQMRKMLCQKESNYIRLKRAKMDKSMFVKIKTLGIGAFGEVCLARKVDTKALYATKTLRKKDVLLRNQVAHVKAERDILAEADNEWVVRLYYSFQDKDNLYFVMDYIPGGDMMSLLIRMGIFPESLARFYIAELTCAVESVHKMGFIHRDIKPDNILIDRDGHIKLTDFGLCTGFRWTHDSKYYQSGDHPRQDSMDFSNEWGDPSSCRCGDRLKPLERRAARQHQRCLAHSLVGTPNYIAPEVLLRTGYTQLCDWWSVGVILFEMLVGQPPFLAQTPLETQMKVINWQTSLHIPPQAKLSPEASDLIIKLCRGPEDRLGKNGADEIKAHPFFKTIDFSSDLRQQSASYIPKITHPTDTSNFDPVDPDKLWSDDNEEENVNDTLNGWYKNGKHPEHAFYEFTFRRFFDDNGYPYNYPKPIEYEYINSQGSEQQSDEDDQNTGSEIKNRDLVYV

[21] = target: Leucine-rich repeat serine/threonine-protein kinase 2 (Homo sapiens) (UniProt Q5S007)
[22] = target: Mitogen-activated protein kinase kinase kinase 4 (Homo sapiens) (UniProt Q9Y6R4)
[23] = target: Dual specificity mitogen-activated protein kinase kinase 1 (Homo sapiens) (UniProt Q02750)
[24] = target: Serine/threonine-protein kinase PAK 1 (Homo sapiens) (UniProt Q13153)
[25] = target: Cyclin-dependent kinase 15 (Homo sapiens) (UniProt Q96Q40)
[26] = target: Phosphorylase b kinase gamma catalytic chain, skeletal muscle/heart isoform (Homo sapiens) (UniProt Q16816)
[27] = system: Phosphatidylinositol 4,5-bisphosphate 3-kinase catalytic subunit alpha isoform (Homo sapiens), P42336 [E545A]
[28] = target: cAMP-dependent protein kinase catalytic subunit beta (Homo sapiens) (UniProt P22694)
[29] = system: Proto-oncogene tyrosine-protein kinase receptor Ret (Homo sapiens), P07949 [M918T]
[30] = target: Dual serine/threonine and tyrosine protein kinase (Homo sapiens) (UniProt Q6XUX3)
[31] = target: Ribosomal protein S6 kinase alpha-6 (Homo sapiens) (UniProt Q9UK32)
[32] = target: Serine/threonine-protein kinase SBK1 (Homo sapiens) (UniProt Q52WX2)
Chain of Serine/threonine-protein kinase SBK1 (Homo sapiens) (Q52WX2 whole entry): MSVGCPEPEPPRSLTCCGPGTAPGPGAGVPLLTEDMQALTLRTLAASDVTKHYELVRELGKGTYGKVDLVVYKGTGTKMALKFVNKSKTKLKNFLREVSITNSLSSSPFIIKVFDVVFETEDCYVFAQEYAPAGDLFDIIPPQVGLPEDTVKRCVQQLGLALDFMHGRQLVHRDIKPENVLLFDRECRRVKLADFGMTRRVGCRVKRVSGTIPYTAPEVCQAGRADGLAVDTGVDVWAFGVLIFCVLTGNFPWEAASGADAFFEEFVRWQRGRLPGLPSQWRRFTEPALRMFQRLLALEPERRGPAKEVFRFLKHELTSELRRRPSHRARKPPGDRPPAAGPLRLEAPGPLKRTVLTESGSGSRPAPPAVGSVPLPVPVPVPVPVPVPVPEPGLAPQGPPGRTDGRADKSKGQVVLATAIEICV

[33] = target: Serine/threonine-protein kinase Sgk2 (Homo sapiens) (UniProt Q9HBY8)
[34] = target: Serine/threonine-protein kinase SIK1 (Homo sapiens) (UniProt P57059)
[35] = target: SRSF protein kinase 3 (Homo sapiens) (UniProt Q9UPE1)
[36] = target: Tyrosine-protein kinase SYK (Homo sapiens) (UniProt P43405)
[37] = target: Serine/threonine-protein kinase tousled-like 1 (Homo sapiens) (UniProt Q9UKI8)
[38] = target: Serine/threonine-protein kinase tousled-like 2 (Homo sapiens) (UniProt Q86UE8)
[39] = target: Activated CDC42 kinase 1 (Homo sapiens) (UniProt Q07912)
[40] = target: Tyrosine-protein kinase receptor TYRO3 (Homo sapiens) (UniProt Q06418)
[41] = target: Serine/threonine-protein kinase VRK2 (Homo sapiens) (UniProt Q86Y07)
[42] = target: Tyrosine-protein kinase Yes (Homo sapiens) (UniProt P07947)
[43] = target: Sodium-dependent serotonin transporter (Homo sapiens) (UniProt P31645); settings: Compound concentration 10.0 uM
[44] = target: Alpha-1D adrenergic receptor (Homo sapiens) (UniProt P25100); settings: Compound concentration 10.0 uM
Chain of Alpha-1D adrenergic receptor (Homo sapiens) (P25100 whole entry): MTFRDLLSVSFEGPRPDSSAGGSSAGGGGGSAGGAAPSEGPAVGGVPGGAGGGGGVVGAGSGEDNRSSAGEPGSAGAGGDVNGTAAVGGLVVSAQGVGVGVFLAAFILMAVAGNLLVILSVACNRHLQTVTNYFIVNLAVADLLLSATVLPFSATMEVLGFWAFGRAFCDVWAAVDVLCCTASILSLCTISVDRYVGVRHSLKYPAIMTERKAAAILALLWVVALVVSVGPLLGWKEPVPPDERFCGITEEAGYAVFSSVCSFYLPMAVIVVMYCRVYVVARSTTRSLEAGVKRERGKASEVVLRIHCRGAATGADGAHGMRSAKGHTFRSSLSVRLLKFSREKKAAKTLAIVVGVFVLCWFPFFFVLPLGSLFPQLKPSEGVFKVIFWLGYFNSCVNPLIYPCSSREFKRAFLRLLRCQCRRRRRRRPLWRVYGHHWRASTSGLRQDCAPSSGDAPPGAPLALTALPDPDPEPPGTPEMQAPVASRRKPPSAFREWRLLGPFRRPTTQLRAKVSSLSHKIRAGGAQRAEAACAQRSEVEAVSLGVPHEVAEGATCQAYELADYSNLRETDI

[45] = target: Sigma intracellular receptor 2 (Homo sapiens, UniProt Q5BJF2); settings: Compound concentration 10.0 uM
[46] = Compound concentration 1000.0 nM
[47] = Compound concentration 100.0 nM

Chain of Calcium/calmodulin-dependent protein kinase type IV (Homo sapiens) (Q16566 whole entry): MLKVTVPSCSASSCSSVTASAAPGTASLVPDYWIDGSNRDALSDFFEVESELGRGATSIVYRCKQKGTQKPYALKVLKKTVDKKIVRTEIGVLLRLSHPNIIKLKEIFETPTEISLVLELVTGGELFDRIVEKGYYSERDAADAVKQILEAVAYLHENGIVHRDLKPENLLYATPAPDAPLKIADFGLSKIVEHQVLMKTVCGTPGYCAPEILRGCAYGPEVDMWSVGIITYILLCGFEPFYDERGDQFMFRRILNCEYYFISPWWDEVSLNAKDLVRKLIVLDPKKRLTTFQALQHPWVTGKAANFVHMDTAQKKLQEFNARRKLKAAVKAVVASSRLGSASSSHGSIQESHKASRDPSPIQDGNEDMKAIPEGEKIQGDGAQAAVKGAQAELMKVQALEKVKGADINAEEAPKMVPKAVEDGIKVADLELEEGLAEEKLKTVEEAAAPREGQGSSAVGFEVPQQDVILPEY

Q: Which results are given for `CN(C)c1ncnc(-c2ccc3nc(Nc4cc(CN5CCN(C(=O)CC(F)(F)F)CC5)ccn4)[nH]c3c2)c1Cl` [BAY-440]?
A: residual activity [1, 46]: 85%; residual activity [2, 46]: 57%; residual activity [3, 46]: 80%; residual activity [4, 46]: 89%; residual activity [5, 46]: 100%; residual activity [6, 46]: 99%; residual activity [7, 46]: 84%; residual activity [8, 46]: 52%; residual activity [9, 46]: 77%; residual activity [10, 46]: 81%; residual activity [11, 46]: 99%; residual activity [12, 46]: 100%; residual activity [13, 46]: 15%; residual activity [14, 46]: 68%; residual activity [15, 46]: 78%; residual activity [16, 46]: 75%; residual activity [17, 46]: 80%; residual activity [18, 46]: 100%; residual activity [19, 46]: 97%; residual activity [20, 46]: 95%; residual activity [21, 46]: 84%; residual activity [22, 46]: 100%; residual activity [23, 46]: 78%; residual activity [24, 46]: 100%; residual activity [25, 46]: 100%; residual activity [26, 46]: 96%; residual activity [27, 46]: 100%; residual activity [28, 46]: 76%; residual activity [29, 46]: 100%; residual activity [30, 46]: 95%; residual activity [31, 46]: 81%; residual activity [32, 46]: 71%; residual activity [33, 46]: 43%; residual activity [34, 46]: 94%; residual activity [35, 46]: 100%; residual activity [36, 46]: 96%; residual activity [37, 46]: 89%; residual activity [38, 46]: 100%; residual activity [39, 46]: 96%; residual activity [40, 46]: 100%; residual activity [41, 46]: 88%; residual activity [42, 46]: 76%; inhibition [43]: 9.9%; inhibition [44]: 20.8%; inhibition [45]: 68.1%

Q: How did the residual activity [1, 47] turn out when `C[C@H](c1ccnc(Nc2nc3ccc(-c4cc(N(C)C)ncn4)cc3[nH]2)c1)N1CCN(C(=O)CC(F)(F)F)CC1` [BAY-985] was run?
A: 100%

Q: And the residual activity [2, 47]?
A: 100%

Q: And the residual activity [3, 47]?
A: 100%

Q: What about the residual activity [4, 47] of the same compound?
A: 100%

Q: What about the residual activity [5, 47] of the same compound?
A: 100%

Q: What about the residual activity [6, 47] of the same compound?
A: 82%

Q: What about the residual activity [7, 47] of the same compound?
A: 100%

Q: And the residual activity [8, 47]?
A: 100%

Q: What about the residual activity [9, 47] of the same compound?
A: 98%

Q: And the residual activity [10, 47]?
A: 87%

Q: And the residual activity [11, 47]?
A: 96%

Q: What about the residual activity [12, 47] of the same compound?
A: 78%

Q: What about the residual activity [13, 47] of the same compound?
A: 64%

Q: And the residual activity [14, 47]?
A: 79%

Q: What about the residual activity [15, 47] of the same compound?
A: 100%

Q: What about the residual activity [16, 47] of the same compound?
A: 100%

Q: What about the residual activity [17, 47] of the same compound?
A: 99%

Q: And the residual activity [18, 47]?
A: 88%

Q: What about the residual activity [19, 47] of the same compound?
A: 96%

Q: And the residual activity [20, 47]?
A: 100%

Q: What about the residual activity [21, 47] of the same compound?
A: 94%

Q: What about the residual activity [22, 47] of the same compound?
A: 96%

Q: And the residual activity [23, 47]?
A: 99%

Q: What about the residual activity [24, 47] of the same compound?
A: 77%

Q: And the residual activity [25, 47]?
A: 100%

Q: And the residual activity [26, 47]?
A: 100%

Q: What about the residual activity [27, 47] of the same compound?
A: 100%

Q: And the residual activity [28, 47]?
A: 100%

Q: What about the residual activity [29, 47] of the same compound?
A: 86%

Q: And the residual activity [30, 47]?
A: 100%

Q: What about the residual activity [31, 47] of the same compound?
A: 56%

Q: And the residual activity [32, 47]?
A: 85%

Q: What about the residual activity [33, 47] of the same compound?
A: 100%

Q: What about the residual activity [34, 47] of the same compound?
A: 96%

Q: And the residual activity [35, 47]?
A: 100%

Q: What about the residual activity [36, 47] of the same compound?
A: 31%

Q: What about the residual activity [37, 47] of the same compound?
A: 76%

Q: And the residual activity [38, 47]?
A: 99%

Q: What about the residual activity [39, 47] of the same compound?
A: 100%

Q: What about the residual activity [40, 47] of the same compound?
A: 96%

Q: And the residual activity [41, 47]?
A: 94%

Q: And the residual activity [42, 47]?
A: 92%

Q: What about the inhibition [43] of the same compound?
A: 21.6%

Q: What about the inhibition [44] of the same compound?
A: 20.2%

Q: And the inhibition [45]?
A: 54.1%
